Values quoted from earlier work in patent US6436936B1, “Methods and compositions for treating disorders, using optically pure (+) zopiclone” (Sepracor Inc., priority 1991, dated 2002).

Tested on: mice
Details: reference agents, 3 per group, ten parameters scored, total score <40 of 60 denotes behavioral depression

Structure (SMILES) | ED100
CN1C(=O)CN=C(c2ccccc2)c2cc(Cl)ccc21 [diazepam] | 50 mg/kg
CCC1(c2ccccc2)CCC(=O)NC1=O (stereo not drawn) [glutethimide] | 300 mg/kg
O=C(CCCN1CCC(O)(c2ccc(Cl)cc2)CC1)c1ccc(F)cc1 [haloperidol] | 10 mg/kg
CCCC(C)(COC(N)=O)COC(N)=O [meprobamate] | 300 mg/kg
CCCC(C)C1(CC)C(=O)NC(=O)NC1=O (stereo not drawn) [pentobarbital] | 100 mg/kg
COC(=O)[C@H]1[C@H]2C[C@@H]3c4[nH]c5cc(OC)ccc5c4CCN3C[C@H]2C[C@@H](OC(=O)c2cc(OC)c(OC)c(OC)c2)[C@@H]1OC [reserpine] | 50 mg/kg
